The term inhibition denotes the relative decrease from the control value, in per cent.

Here are results for twelve compounds from patent US11584737B2, “Heterocyclic compound” (TAKEDA PHARMACEUTICAL COMPANY LIMITED, priority 2018, dated 2023).

One test concerns the target CDK12/CycK complex (Homo sapiens, UniProt Q9NYV4). Nature of the test: Measurement of CDK12 inhibitory activity by binding assay (TR-FRET, 66 nM BODIPY-FL-labeled AT-7519). The following applies: inhibitory rate against CDK12 at 1 μM test compound, 66 nM BODIPY-FL-labeled AT-7519, 2 nM CDK12/CycK. The essentials: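 His-tagged CDK12/CycK (2 nM) premixed with 66 nM BODIPY-FL-AT-7519 tracer, 0.2 nM Tb-streptavidin and 0.4 nM biotin-anti-His, then incubated with compound 120 min at room temperature. Tracer displacement read as BODIPY-FL/Tb TR-FRET ratio; percent inhibition normalized to no-compound control and 3 μM AT-7519 blank.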

The test system of test [1] is A2780 intracellular CTD pSer2. Nature of the test: CTD pSer2 measurement using human ovarian cancer cell A2780 and In-Cell Western method. Format: cell-based. The following applies: inhibitory rate against A2780 intracellular CTD pSer2 at 1 μM test compound, 4 hr. On the procedure: Experimental Example 3: CTD pSer2 Measurement Using Human Ovarian Cancer Cell A2780 and In-Cell Western Method
A2780 cells (ATCC) were seeded in a 96 well plate at 1.8×10^4 cells/well, and the cells were cultured overnight in a cell culture medium RPMI1640 (FUJIFILM Wako Pure Chemical Corporation) containing 10% FBS (fetal bovine serum) and 1% penicillin/streptomycin. A test compound dissolved in a cell medium was added, and the mixture was stood for 4 hr in a CO2 incubator (37° C.). The cells were fixed with ALTFiX (Falma) for 30 min, and washed 3 times with a washing buffer (20 mM Tris-HCl (pH 7.5), 500 mM NaCl, 0.1% Tween20). 0.1% Triton-X-100 diluted with PBS(−) was added and the mixture was incubated at room temperature for 15 min. Thereafter, a blocking buffer (LI-COR) was added, and the mixture was incubated at room temperature for 1 hr. An anti-CTD pS2 antibody (Abcam) suspended in an antibody diluent (blocking buffer: PBS(−)-diluted 0.1% Tween20=1:1) was added, and the mixture was incubated at room temperature for 1 hr. The mixture was […] with a washing buffer, IRDye800CW-labeled anti-goat antibody (LI-COR) was added, and the mixture was incubated at room temperature for 1 hr. The mixture was washed 3 times with a washing buffer, and the fluorescence wavelength at 800 nm was measured by Aerius (LI-COR).
The inhibitory rate (%) of the test compound against A2780 intracellular CTD pSer2 was calculated by the following formula. Inhibitory rate (%)=(1−(count of test compound−blank)÷(control−blank))×100
The count of the A2780 cell under compound non-addition conditions is indicated as control, and the count under compound non-addition and primary antibody non-addition conditions is indicated as blank.
The results measured by the above-mentioned method (inhibitory rate of the signal value at 1 μM test compound relative to control) are shown below.

In a further test the test system is A2780 cells. Nature of the test: In vitro proliferation suppression test (CellTiter-Glo). Format: cell-based, human. The following applies: Homo sapiens, 72 h, A2780 cell proliferation inhibitory rate at 1 μM test compound, three days. The essentials:
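A2780 cells in RPMI1640 with 10% FBS were exposed to 1 μM compound for three days at 37° C, 5% CO2. CellTiter-Glo luminescence read; inhibition (%) calculated relative to wells without compound.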
On the technique in general: Cellular ATP, detected with luciferase, serves as a proxy for viable cell number.

Another test deals with CDK12/CycK enzyme (Homo sapiens, UniProt Q9NYV4). Nature of the test: Measurement of CDK12/CycK inhibitory activity (ULight-4E-BP1 peptide phosphorylation, LANCE). Format: biochemical. The following applies: inhibitory rate against CDK12/CycK at 1 μM test compound, ATP 10 μM or 500 μM. On the procedure:
Experimental Example 2: Measurement of CDK12/CycK Inhibitory Activity
A test compound dissolved in DMSO was added to a reaction solution (50 mM HEPES (pH 7.5), 10 mM MgCl2, 1 mM DTT, 0.01% Tween 20, 0.01% BSA) containing CDK12/CycK enzyme and ULight-labeled eIF4E-binding protein 1 (4E-BP1) (Thr37/Thr46) peptide (PerkinElmer), and the mixture was reacted at room temperature for 60 min. […] was added to give an ATP solution with a final concentration of 10 μM or 500 μM to start the enzyme reaction, and the mixture was reacted at room temperature for 60 min. A LANCE Detection buffer (PerkinElmer) containing europium-labeled anti-phosphorylation 4E-BP1 (Thr37/Thr46) antibody (PerkinElmer) and EDTA (final concentration 10 mM) was added to discontinue the reaction. After standing for 60 min, time decomposition fluorescence value (excitation 320 nm, emission 615 nm, 665 nm) was measured by Envision (PerkinElmer). The inhibitory rate (%) of the test compound against CDK12/CyclinK was calculated by the following formula. Inhibitory rate (%)=(1−(count of test compound−blank)÷(control−blank))×100
The count of the CDK12 enzyme reaction mixture under compound non-addition conditions is indicated as control, and the count under compound non-addition and CDK12/CycK enzyme non-addition conditions is indicated as blank.
The results measured by the above-mentioned method (inhibitory rate (%) of the signal value at 1 μM test compound relative to control is shown below.
(TR-FRET usually uses a lanthanide donor and a delayed reading to cut background.)

Sequence of CDK12/CycK complex (Q9NYV4 whole entry, species assumed): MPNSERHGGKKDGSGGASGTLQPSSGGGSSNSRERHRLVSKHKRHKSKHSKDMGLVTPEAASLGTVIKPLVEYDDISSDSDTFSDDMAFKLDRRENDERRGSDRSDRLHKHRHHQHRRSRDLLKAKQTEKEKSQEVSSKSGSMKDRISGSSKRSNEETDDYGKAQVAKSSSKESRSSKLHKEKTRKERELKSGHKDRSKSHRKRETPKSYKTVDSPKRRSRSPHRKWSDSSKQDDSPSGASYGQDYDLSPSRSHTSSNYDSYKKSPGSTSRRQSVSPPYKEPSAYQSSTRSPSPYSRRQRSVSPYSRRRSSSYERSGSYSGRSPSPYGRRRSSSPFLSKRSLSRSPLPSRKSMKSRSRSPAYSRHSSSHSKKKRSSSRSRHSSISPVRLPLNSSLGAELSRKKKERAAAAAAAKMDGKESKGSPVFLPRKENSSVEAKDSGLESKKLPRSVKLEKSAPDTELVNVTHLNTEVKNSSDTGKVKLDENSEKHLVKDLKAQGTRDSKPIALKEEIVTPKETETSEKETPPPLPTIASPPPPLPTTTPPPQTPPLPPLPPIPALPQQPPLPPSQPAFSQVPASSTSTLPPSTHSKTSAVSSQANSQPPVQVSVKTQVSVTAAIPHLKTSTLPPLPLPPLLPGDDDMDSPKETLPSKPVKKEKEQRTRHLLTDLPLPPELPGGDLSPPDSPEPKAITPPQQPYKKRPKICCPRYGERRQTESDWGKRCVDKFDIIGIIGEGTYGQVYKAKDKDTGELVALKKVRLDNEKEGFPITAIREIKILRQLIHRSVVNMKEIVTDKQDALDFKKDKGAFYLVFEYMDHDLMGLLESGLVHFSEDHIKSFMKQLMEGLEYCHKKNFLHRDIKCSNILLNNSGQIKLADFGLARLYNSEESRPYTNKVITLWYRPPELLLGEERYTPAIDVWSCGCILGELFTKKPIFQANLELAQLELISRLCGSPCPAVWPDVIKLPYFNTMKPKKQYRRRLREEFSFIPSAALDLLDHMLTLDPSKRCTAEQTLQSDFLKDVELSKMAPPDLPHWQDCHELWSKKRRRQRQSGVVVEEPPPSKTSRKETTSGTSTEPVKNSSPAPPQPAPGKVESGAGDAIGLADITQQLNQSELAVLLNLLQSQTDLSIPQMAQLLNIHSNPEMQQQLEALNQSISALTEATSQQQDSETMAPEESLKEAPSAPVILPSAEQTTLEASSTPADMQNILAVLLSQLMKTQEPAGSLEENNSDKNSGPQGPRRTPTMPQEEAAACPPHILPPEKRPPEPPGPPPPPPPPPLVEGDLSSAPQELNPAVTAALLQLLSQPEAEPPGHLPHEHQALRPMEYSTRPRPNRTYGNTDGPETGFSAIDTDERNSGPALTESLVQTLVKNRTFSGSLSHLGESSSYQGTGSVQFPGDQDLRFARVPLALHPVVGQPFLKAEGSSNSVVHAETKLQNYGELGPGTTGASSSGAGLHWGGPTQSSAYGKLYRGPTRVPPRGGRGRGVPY
Sequence of CDK12/CycK complex (O75909 whole entry partner, species assumed): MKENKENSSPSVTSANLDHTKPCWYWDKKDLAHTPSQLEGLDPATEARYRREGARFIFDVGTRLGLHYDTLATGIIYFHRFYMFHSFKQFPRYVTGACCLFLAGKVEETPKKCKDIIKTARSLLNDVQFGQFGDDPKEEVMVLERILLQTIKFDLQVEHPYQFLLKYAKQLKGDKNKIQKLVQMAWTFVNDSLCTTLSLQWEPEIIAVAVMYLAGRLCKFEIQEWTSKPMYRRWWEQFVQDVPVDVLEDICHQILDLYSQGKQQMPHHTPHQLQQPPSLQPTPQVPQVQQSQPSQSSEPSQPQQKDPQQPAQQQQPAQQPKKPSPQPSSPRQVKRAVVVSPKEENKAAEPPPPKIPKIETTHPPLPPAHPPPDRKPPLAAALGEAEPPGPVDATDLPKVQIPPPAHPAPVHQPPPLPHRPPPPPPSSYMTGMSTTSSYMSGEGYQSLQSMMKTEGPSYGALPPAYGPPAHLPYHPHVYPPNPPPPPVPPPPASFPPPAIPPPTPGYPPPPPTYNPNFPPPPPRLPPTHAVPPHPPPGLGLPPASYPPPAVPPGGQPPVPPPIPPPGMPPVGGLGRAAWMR
Sequence of CDK12/CycK enzyme (Q9NYV4 whole entry, species assumed): as the sequence (Q9NYV4 whole entry, species assumed) above
Sequence of CDK12/CycK enzyme (O75909 whole entry partner, species assumed): as the sequence (O75909 whole entry partner, species assumed) above

`Cn1cc(-c2ccc(N(C(=O)NCc3ccccc3)[C@H]3CC[C@H](Nc4ncc(C#N)c(NC5COC5)n4)CC3)cc2)cn1` [Example 527, 3-benzyl-1-(trans-4-((5-cyano-4-(oxetan-3-ylamino)pyrimidin-2-yl)amino)cyclohexyl)-1-(4-(1-methyl-1H-pyrazol-4-yl)phenyl)urea]: the inhibition at 1 µM on CDK12/CycK complex came out at 102%; in test [1], 70%; in the test on A2780 cells it was 97%; at CDK12/CycK enzyme, 99%.
As for `Cn1ccc(-c2ccc(N(C(=O)NCc3ccccc3)[C@H]3CC[C@H](Nc4ncc(C#N)c(NC5COC5)n4)CC3)cc2)cc1=O` [Example 530, 3-benzyl-1-(trans-4-((5-cyano-4-(oxetan-3-ylamino)pyrimidin-2-yl)amino)cyclohexyl)-1-(4-(1-methyl-2-oxo-1,2-dihydropyridin-4-yl)phenyl) urea], the inhibition at 1 µM on CDK12/CycK complex is 100%; in test [1], 64%; in the test with A2780 cells, 97%; on CDK12/CycK enzyme it was 104%.
For `Cn1cc(-c2ccc(N(C(=O)NCc3ccccc3)[C@H]3CC[C@H](Nc4ncc(C#N)c(NC5(C)COC5)n4)CC3)nc2)cn1` [Example 605, 3-benzyl-1-(trans-4-((5-cyano-4-((3-methyloxetan-3-yl)amino)-pyrimidin-2-yl)amino)cyclohexyl)-1-(5-(1-methyl-1H-pyrazol-4-yl)pyridin-2-yl)urea], the inhibition at 1 µM on CDK12/CycK complex was 90%; in test [1], 73%; in the test on A2780 cells it was 98%; at CDK12/CycK enzyme, 100%.
In the case of `Cn1cc(-c2ccc(N(C(=O)NCc3ccccc3)[C@H]3CC[C@H](Nc4ncc(C#N)c(OC5COC5)n4)CC3)nc2)cn1` [Example 485, 3-benzyl-1-(trans-4-((5-cyano-4-(oxetan-3-yloxy)pyrimidin-2-yl)amino)cyclohexyl)-1-(5-(1-methyl-1H-pyrazol-4-yl)pyridin-2-yl)urea], the inhibition at 1 µM is 102% on CDK12/CycK complex, 63% in test [1], 97% in the test with A2780 cells and 103% against CDK12/CycK enzyme.
In the case of `Cc1cc(-c2nc(N[C@H]3CC[C@H](N(C(=O)NCc4ccccc4)c4ccc(-c5cnn(C)c5)cn4)CC3)ncc2C#N)[nH]n1` [Example 469, 3-benzyl-1-(trans-4-((5-cyano-4-(3-methyl-1H-pyrazol-5-yl)pyrimidin-2-yl)amino)cyclohexyl)-1-(5-(1-methyl-1H-pyrazol-4-yl)pyridin-2-yl) urea], the inhibition at 1 µM on CDK12/CycK complex came out at 94%; in test [1], 62%; with A2780 cells, 97%; against CDK12/CycK enzyme it was 103%.
Take `Cn1cc(-c2ccc(N(C(=O)NCc3ccccc3)[C@H]3CC[C@H](Nc4ncc(C#N)c(-c5cncc(S(C)(=O)=O)c5)n4)CC3)nc2)cn1` [Example 440, 3-benzyl-1-(trans-4-((5-cyano-4-(5-(methylsulfonyl)pyridin-3-yl)pyrimidin-2-yl)amino)cyclohexyl)-1-(5-(1-methyl-1H-pyrazol-4-yl)pyridin-2-yl) urea]: the inhibition at 1 µM on CDK12/CycK complex came out at 99%; in test [1], 54%; in the test with A2780 cells it was 98%; at CDK12/CycK enzyme, 101%.
As for `COc1ncc(-c2ccc(N(C(=O)NCc3ccccc3)[C@H]3CC[C@H](Nc4ncc(C#N)c(OC5COC5)n4)CC3)nc2)cn1` [Example 609, 3-benzyl-1-(trans-4-((5-cyano-4-(oxetan-3-yloxy)pyrimidin-2-yl)amino)cyclohexyl)-1-(5-(2-methoxypyrimidin-5-yl)pyridin-2-yl)urea], the inhibition at 1 µM on CDK12/CycK complex stood at 99%; in test [1], 41%; with A2780 cells, 99%; at CDK12/CycK enzyme it was 107%.
As for `Cn1cc(-c2ccc(N(C(=O)NCc3ccccc3)[C@H]3CC[C@H](Nc4ncc(C#N)c(NC5COC5)n4)CC3)nc2)cn1` [Example 319, 3-benzyl-1-(trans-4-((5-cyano-4-(oxetan-3-ylamino)pyrimidin-2-yl)amino)cyclohexyl)-1-(5-(1-methyl-1H-pyrazol-4-yl)pyridin-2-yl)urea], the inhibition at 1 µM was 94% at CDK12/CycK complex, 69% in test [1], 97% in the test on A2780 cells and 98% against CDK12/CycK enzyme.
Take `COc1ncc(-c2ccc(N(C(=O)NCc3ccccn3)[C@H]3CC[C@H](Nc4ncc(C(F)(F)F)c(OC5COC5)n4)CC3)nc2)cn1` [Example 610, 1-(5-(2-methoxypyrimidin-5-yl)pyridin-2-yl)-1-(trans-4-((4-(oxetan-3-yloxy)-5-(trifluoromethyl)pyrimidin-2-yl)amino)cyclohexyl)-3-(pyridin-2-ylmethyl)urea]: the inhibition at 1 µM at CDK12/CycK complex stood at 103%; in test [1] it was 49%; in the test with A2780 cells, 98%; on CDK12/CycK enzyme, 99%.
As to `COc1ncc(-c2ccc(N(C(=O)OCc3ccccc3)[C@H]3CC[C@H](Nc4ncc(C(F)(F)F)c(N5CC(F)(CO)C5)n4)CC3)nc2)cn1` [Example 600, benzyl (trans-4-((4-(3-fluoro-3-(hydroxymethyl)azetidin-1-yl)-5-(trifluoromethyl)pyrimidin-2-yl)amino)cyclohexyl) (5-(2-methoxypyrimidin-5-yl)pyridin-2-yl)carbamate], the inhibition at 1 µM on CDK12/CycK complex came out at 83%; in test [1] it was 81%; in the test on A2780 cells, 93%; against CDK12/CycK enzyme, 108%.
The matching figures for `COc1ncc(-c2ccc(N(C(=O)OCc3ccccc3)[C@H]3CC[C@H](Nc4ncc(C#N)c(NC5COC5)n4)CC3)nc2)cn1` [Example 581, benzyl (trans-4-((5-cyano-4-(oxetan-3-ylamino)pyrimidin-2-yl)amino)cyclohexyl) (5-(2-methoxypyrimidin-5-yl)pyridin-2-yl)carbamate]: 88%, 70%, 99% and 102%.
In the case of `COc1ncc(-c2ccc(N(C(=O)NCc3ccccc3)[C@H]3CC[C@H](Nc4ncc(C#N)c(NC5COC5)n4)CC3)nc2)cn1` [Example 553, 3-benzyl-1-(trans-4-((5-cyano-4-(oxetan-3-ylamino)pyrimidin-2-yl)amino)cyclohexyl)-1-(5-(2-methoxypyrimidin-5-yl)pyridin-2-yl)urea], the inhibition at 1 µM at CDK12/CycK complex worked out at 100%; in test [1], 74%; with A2780 cells, 98%; on CDK12/CycK enzyme it was 106%.
